From patent US9296746B2, “Heterocyclic compound” (TAKEDA PHARMACEUTICAL COMPANY LIMITED, priority 2012, dated 2016)

Target: T1, human CH24H (Homo sapiens, UniProt Q9Y6A2)
T1 construct: Using Full-Length Mammalian Gene Collection No. 4819975 (Invitrogen) as a template; made in house; host or cells: FreeStyle 293-F cells (transient transfection); cell lysate supernatant, not purified
Test: Measurement of CH24H inhibitory activity (24-HC produced from [14C] cholesterol by human CH24H lysate)
Type: biochemical
Conditions: test compound 1 μM, [14C] cholesterol 15 μM, 37° C., 5 hr, read-out: Inhibitory Rate (%) in 1 μM
Experimental: The expression of human CH24H was performed using FreeStyle 293 Expression System (Invitrogen). According to the manual attached to FreeStyle 293 Expression System and using the plasmid DNA for human CH24H expression (pcDNA3.1(+)/hCH24H) constructed in Experimental Example 1, a transient expression using FreeStyle 293-F cell was performed. After transfection, the cells were cultured at 37° C., 8% CO2 with shaking at 125 rpm for 2 days. The cells were collected by centrifugation, and suspended in a suspension buffer (100 mM potassium phosphate (pH 7.4), 0.1 mM EDTA, 1 mM DTT, 20% Glycerol). The suspended product was disrupted by a polytron homogenizer (manufactured by Kinematica), and centrifuged at 9000×g for 10 min, and the supernatant was collected. The collected supernatant was cryopreserved (−80° C.) as a human CH24H lysate standard product.
For the measurement of CH24H inhibitory activity, using the human CH24H lysate prepared in Experimental Example 2, the amount of 24-HC produced from cholesterol by catalytic activity of CH24H was measured in the presence of a test compound, and compared with that measured in the absence of the test compound. That is, a test compound solution at various concentrations was mixed with a reaction buffer (50 mM potassium phosphate containing 0.1% BSA and Complete, EDTA-free, pH 7.4) and human CH24H lysate. Then, [^14C] cholesterol (53 mCi/mmol specific activity, 15 μM) was added, and CH24H reaction was performed at 37° C. for 5 hr. After completion of the reaction, a quenching solution consisting of chloroform/methanol/distilled water (2:2:1 v/v) was added, and the resulting 24-HC was extracted by shaking. The extract was applied to silica gel thin layer chromatography (ethyl acetate:toluene=4:6), and the obtained ^14C-24HC fraction was measured with BAS2500 (Fujifilm Corporation).
The inhibitory rate (%) was calculated from the ratio of radioactivity in the presence of a test compound relative to the radioactivity in the absence of the test compound.

T1 sequence (Q9Y6A2 whole entry): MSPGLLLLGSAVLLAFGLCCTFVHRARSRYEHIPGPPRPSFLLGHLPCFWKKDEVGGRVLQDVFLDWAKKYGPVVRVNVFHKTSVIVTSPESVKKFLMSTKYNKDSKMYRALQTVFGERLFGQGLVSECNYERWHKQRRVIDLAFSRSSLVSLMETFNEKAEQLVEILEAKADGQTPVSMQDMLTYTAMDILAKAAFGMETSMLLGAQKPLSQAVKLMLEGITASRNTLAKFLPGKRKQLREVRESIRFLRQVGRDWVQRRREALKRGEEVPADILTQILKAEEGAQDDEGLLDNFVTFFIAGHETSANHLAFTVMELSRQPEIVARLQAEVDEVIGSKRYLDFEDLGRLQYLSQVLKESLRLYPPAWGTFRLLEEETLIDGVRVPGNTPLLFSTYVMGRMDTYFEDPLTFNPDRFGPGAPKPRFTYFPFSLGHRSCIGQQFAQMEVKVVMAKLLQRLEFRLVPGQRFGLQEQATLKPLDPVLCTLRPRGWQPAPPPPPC

inhibition at 1 µM [%]	Compound
86	CCOC(=O)c1cnc2c(-c3cnco3)cc(C(F)(F)F)cn12 [Example 1, ethyl 8-(1,3-oxazol-5-yl)-6-(trifluoromethyl)imidazo[1,2-a]pyridine-3-carboxylate]
89	O=C(c1cnc2c(-c3cnco3)cc(C(F)(F)F)cn12)N1CCCC1 [Example 2, (8-(1,3-oxazol-5-yl)-6-(trifluoromethyl)imidazo[1,2-a]pyridin-3-yl)(pyrrolidin-1-yl)methanone]
88	O=C(C1CC1)n1ccc2c(-c3cnco3)cc(C(F)(F)F)cc21 [Example 4, cyclopropyl(4-(1,3-oxazol-5-yl)-6-(trifluoromethyl)-1H-indol-1-yl)methanone]
87	O=C(c1cnc2c(-c3cnco3)cc(C(F)(F)F)cn12)N1CCOCC1 [Example 16, morpholin-4-yl(8-(1,3-oxazol-5-yl)-6-(trifluoromethyl)imidazo[1,2-a]pyridin-3-yl)methanone]
99	O=C(c1cnc2c(-c3cnco3)cc(C(F)(F)F)cn12)N1CC(F)(F)C1 [Example 21, (3,3-difluoroazetidin-1-yl)(8-(1,3-oxazol-5-yl)-6-(trifluoromethyl)imidazo[1,2-a]pyridin-3-yl)methanone]
93	O=C(c1cnc2c(-c3cnco3)cc(C(F)(F)F)cn12)N1CC2(COC2)C1 [Example 22, 2-oxa-6-azaspiro[3.3]hept-6-yl(8-(1,3-oxazol-5-yl)-6-(trifluoromethyl)imidazo[1,2-a]pyridin-3-yl)methanone]
93	O=C(NC1CCOCC1)c1cnc2c(-c3cnco3)cc(C(F)(F)F)cn12 [Example 44, 8-(1,3-oxazol-5-yl)-N-(tetrahydro-2H-pyran-4-yl)-6-(trifluoromethyl)imidazo[1,2-a]pyridine-3-carboxamide]
92	CN(C(=O)c1cnc2c(-c3cnco3)cc(C(F)(F)F)cn12)C1CCOCC1 [Example 47, N-methyl-8-(1,3-oxazol-5-yl)-N-(tetrahydro-2H-pyran-4-yl)-6-(trifluoromethyl)imidazo[1,2-a]pyridine-3-carboxamide]
80	O=C(c1nnc2c(-c3cnco3)cc(C(F)(F)F)cn12)N1C[C@@H]2C[C@H]1CO2 [Example 58, (1S,4S)-2-oxa-5-azabicyclo[2.2.1]hept-5-yl(8-(1,3-oxazol-5-yl)-6-(trifluoromethyl)[1,2,4]triazolo[4,3-a]pyridin-3-yl)methanone]
88	O=C(c1cnc2c(-c3cnco3)cc(C(F)(F)F)cn12)N1C[C@@H]2C[C@H]1CO2 [Example 71, (1S,4S)-2-oxa-5-azabicyclo[2.2.1]hept-5-yl(8-(1,3-oxazol-5-yl)-6-(trifluoromethyl)imidazo[1,2-a]pyridin-3-yl)methanone]
96	O=C(Nc1ccccc1)c1cnc2c(-c3cnco3)cc(C(F)(F)F)cn12 [Example 74, 8-(1,3-oxazol-5-yl)-N-phenyl-6-(trifluoromethyl)imidazo[1,2-a]pyridine-3-carboxamide]
94	Cc1cc(-c2cnco2)c2ncc(C(=O)N3C[C@@H]4C[C@H]3CO4)n2c1 [Example 78, (6-methyl-8-(1,3-oxazol-5-yl)imidazo[1,2-a]pyridin-3-yl)((1S,4S)-2-oxa-5-azabicyclo[2.2.1]hept-5-yl)methanone]
94	O=C(c1cnc2c(-c3cnco3)cc(C(F)(F)F)cn12)N1CC[C@H](O)C1 [Example 87, ((3S)-3-hydroxypyrrolidin-1-yl)(8-(1,3-oxazol-5-yl)-6-(trifluoromethyl)imidazo[1,2-a]pyridin-3-yl)methanone]
91	O=C(c1cnc2c(-c3cnco3)cc(C(F)(F)F)cn12)N1CC[C@H](OCC(F)F)C1 [Example 90, ((3S)-3-(2,2-difluoroethoxy)pyrrolidin-1-yl)(8-(1,3-oxazol-5-yl)-6-(trifluoromethyl)imidazo[1,2-a]pyridin-3-yl)methanone]
86	O=C(c1cnc2c(-c3cnco3)cc(Cl)cn12)N1C[C@@H]2C[C@H]1CO2 [Example 92, (6-chloro-8-(1,3-oxazole-5-yl)imidazo[1,2-a]pyridin-3-yl)((1S,4S)-2-oxa-5-azabicyclo[2.2.1]hept-5-yl)methanone]
68	O=C(c1cnc2c(-c3cnco3)cc(-c3cnco3)cn12)N1C[C@@H]2C[C@H]1CO2 [Example 93, (6,8-di(1,3-oxazol-5-yl)imidazo[1,2-a]pyridin-3-yl)((1S,4S)-2-oxa-5-azabicyclo[2.2.1]hept-5-yl)methanone]
69	CCNC(=O)c1c(C)nc2c(-c3cnco3)cc(C(F)(F)F)cn12 [Example 98, N-ethyl-2-methyl-8-(1,3-oxazol-5-yl)-6-(trifluoromethyl)imidazo[1,2-a]pyridine-3-carboxamide]
89	O=C(NCc1ccccc1)c1nnc2c(-c3cnco3)cc(C(F)(F)F)cn12 [Example 107, N-benzyl-8-(1,3-oxazol-5-yl)-6-(trifluoromethyl)[1,2,4]triazolo[4,3-a]pyridine-3-carboxamide]
90	O=C(c1cnc2c(-c3cnco3)cc(C3CC3)cn12)N1C[C@@H]2C[C@H]1CO2 [Example 116, (6-cyclopropyl-8-(1,3-oxazol-5-yl)imidazo[1,2-a]pyridin-3-yl)((1S,4S)-2-oxa-5-azabicyclo[2.2.1]hept-5-yl)methanone]
93	Cc1cc(-c2cnco2)n2ncc(C(=O)N3C[C@@H]4C[C@H]3CO4)c2c1 [Example 126, (5-methyl-7-(1,3-oxazol-5-yl)pyrazolo[1,5-a]pyridin-3-yl)((1S,4S)-2-oxa-5-azabicyclo[2.2.1]hept-5-yl)methanone]
86	O=C(c1cnc2c(-n3cncn3)cc(C(F)(F)F)cn12)N1C[C@@H]2C[C@H]1CO2 [Example 128, (1S,4S)-2-oxa-5-azabicyclo[2.2.1]hept-5-yl(8-(1H-1,2,4-triazol-1-yl)-6-(trifluoromethyl)imidazo[1,2-a]pyridin-3-yl)methanone]
71	O=C(c1cnc2c(-c3cn[nH]c3)cc(C(F)(F)F)cn12)N1C[C@@H]2C[C@H]1CO2 [Example 134, (1S,4S)-2-oxa-5-azabicyclo[2.2.1]hept-5-yl(8-(1H-pyrazol-4-yl)-6-(trifluoromethyl)imidazo[1,2-a]pyridin-3-yl)methanone]
84	CC(=O)c1cc(-c2cnco2)c2ncc(C(=O)N3C[C@@H]4C[C@H]3CO4)n2c1 [Example 155, 1-(3-((1S,4S)-2-oxa-5-azabicyclo[2.2.1]hept-5-ylcarbonyl)-8-(1,3-oxazol-5-yl)imidazo[1,2-a]pyridin-6-yl)ethanone]
91	O=C(c1cnc2c(-c3cnco3)cc(C(F)F)cn12)N1C[C@@H]2C[C@H]1CO2 [Example 171, (6-(difluoromethyl)-8-(1,3-oxazol-5-yl)imidazo[1,2-a]pyridin-3-yl)((1S,4S)-2-oxa-5-azabicyclo[2.2.1]hept-5-yl)methanone]
80	N#C[C@H]1CCCN1C(=O)c1cnc2c(-c3cnco3)cc(C(F)(F)F)cn12 [Example 175, (2R)-1-((8-(1,3-oxazol-5-yl)-6-(trifluoromethyl)imidazo[1,2-a]pyridin-3-yl)carbonyl)pyrrolidine-2-carbonitrile]

Compound	inhibition at 1 µM [%]
O=C(c1cnc2c(-c3cnco3)cc(C(F)(F)F)cn12)N1C2COCC1C2 [Example 86, 3-oxa-6-azabicyclo[3.1.1]hept-6-yl(8-(1,3-oxazol-5-yl)-6-(trifluoromethyl)imidazo[1,2-a]pyridin-3-yl)methanone]	95
O=C(c1cnc2c(-c3cnco3)cc(F)cn12)N1C2CCC1COC2 [Example 138, (6-fluoro-8-(1,3-oxazol-5-yl)imidazo[1,2-a]pyridin-3-yl)(3-oxa-8-azabicyclo[3.2.1]oct-8-yl)methanone]	82
O=C(c1cnc2c(-n3cncn3)cc(C(F)(F)F)cn12)N1C2CCC1COC2 [Example 142, 3-oxa-8-azabicyclo[3.2.1]oct-8-yl(8-(1H-1,2,4-triazol-1-yl)-6-(trifluoromethyl)imidazo[1,2-a]pyridin-3-yl)methanone]	87
O=C(c1cnc2c(-c3cnco3)cc(C3CC3)cn12)N1C2CCC1COC2 [Example 143, (6-cyclopropyl-8-(1,3-oxazol-5-yl)imidazo[1,2-a]pyridin-3-yl)(3-oxa-8-azabicyclo[3.2.1]oct-8-yl)methanone]	91
O=C(c1cnc2c(-n3cncn3)cc(C(F)(F)F)cn12)N1C2COCC1C2 [Example 156, 3-oxa-6-azabicyclo[3.1.1]hept-6-yl(8-(1H-1,2,4-triazol-1-yl)-6-(trifluoromethyl)imidazo[1,2-a]pyridin-3-yl)methanone]	94
